Source: patent US20100298285A1, “Biclycloheteroaryl Compounds as P2x7 Modulators and Uses Thereof” (priority 2006, published 2010)

System: IL-1β release, THP-1 cells
Experiment: IL-1β release assay in differentiated THP-1 cells stimulated with BzATP (Example 9)
Format: cell-based
Details: Homo sapiens; for inhibition at 0.3 µM: 0.3 μM compound ("+" symbols); for inhibition at 0.3 µM / inhibition at 0.1 µM: differentiated THP-1 cells, 250 uM BzATP, read-out: IL-1β% Inhib. @ 0.3 or 0.1 μM; for IC50: THP-1 cells, BzATP 250 uM, four parameter logistic fit; for inhibition at 0.1 µM: 0.1 μM compound ("*" symbols)
Procedure: THP-1 cells (ATCC Cat # 285-IF-100) are plated in 96 well plates at a concentration of 200,000 cells per well and allowed to differentiate in RPMI-1640 media (ATCC Cat # 30-2001) containing 10% FBS, 100 IU/mL penicillin, 100 ug/mL streptomycin, 100 ng/mL LPS and 100 ng/mL IFN-γ for 16 hours. Following differentiation, the cells are treated for an additional 2 hours in RPMI-1640 media containing 100 IU/mL penicillin, 100 ug/mL streptomycin and fresh LPS at 100 ng/mL. The cells are then pretreated for 30 minutes with the compound of interest at the appropriate concentration in RPMI media containing 100 IU/mL penicillin, 100 ug/mL streptomycin. Following the pretreatment 2′,3′-O-(4-benzoylbenzoyl)-adenosine 5′-triphosphate (Sigma Aldrich Cat # B6396) is added to a final concentration of 250 uM and the cells are incubated for an additional 45 minutes. 30 uL of cell supernatant is then collected and IL-1β levels determined via ELISA (R&D systems Cat. # HSLB50) according to manufacturer's recommendations using the Tecan Safire plate reader. Background adjusted IL-1β levels of drug treated and non-treated cells are used to calculate the percent inhibition.
The following compounds have been or can be prepared according to the synthetic methods described above. For the purpose of Table 1 below, activity of each compound, which can be determined using the IL-1β assay method described in Example 9, is expressed as follows: […]
The compounds set forth in Table 1 were tested for activity in a cellular model as described herein. Specifically, cells were pretreated with differing amounts of the compound under test and released IL-1β determined as in Example 9, above. Measurements were made and IC50 values, presented in Table 2, below, were determined by fitting the data to a four parameter logistic equation using GraphPad Prism software (GraphPad Software, Inc). The equation may be expressed by the following formula:
Y=Bottom+(Top−Bottom)/(1+10̂((Log EC50−X)*HillSlope))
Where X is the logarithm of concentration, Y is the response and Y starts at Bottom and goes to Top with a sigmoid shape.

IC50 [nM] | SMILES | inhibition at 0.3 µM [%] | inhibition at 0.1 µM [%]
49.3 | O=C(Cc1ccc(C(F)(F)F)cc1)Nc1c(Cl)ccc2c1CCN(S(=O)(=O)c1ccccc1Cl)C2 [Compound 3001, N-[6-Chloro-2-(2-chloro-benzenesulfonyl)-1,2,3,4-tetrahydro-isoquinolin-5-yl]-2-(4-trifluoromethyl-phenyl)-acetamide] | ≥ 76 | 
 | O=C(Cc1ccc(C(F)(F)F)cc1)Nc1c(Cl)ccc2c1CCN(S(=O)(=O)c1ccccc1F)C2 [Compound 3002] |  | 0 to 25
 | O=C(Cc1ccc(C(F)(F)F)cc1)Nc1c(Cl)ccc2c1CCN(S(=O)(=O)c1cccc(F)c1)C2 [Compound 3003] |  | 0 to 25
 | O=C(Cc1ccc(C(F)(F)F)cc1)Nc1c(Cl)ccc2c1CCN(S(=O)(=O)c1ccc(F)cc1)C2 [Compound 3004] |  | 0 to 25
 | O=C(Cc1ccc(C(F)(F)F)cc1)Nc1c(Cl)ccc2c1CCN(S(=O)(=O)c1ccc(F)c(F)c1)C2 [Compound 3005] |  | 0 to 25
 | O=C(Cc1ccc(C(F)(F)F)cc1)Nc1c(Cl)ccc2c1CCN(S(=O)(=O)c1cc(F)cc(F)c1)C2 [Compound 3006] |  | 0 to 25
 | O=C(Cc1ccc(C(F)(F)F)cc1)Nc1c(Cl)ccc2c1CCN(S(=O)(=O)c1ccc(F)cc1F)C2 [Compound 3007] |  | 0 to 25
 | O=C(Cc1ccc(C(F)(F)F)cc1)Nc1c(Cl)ccc2c1CCN(S(=O)(=O)c1cc(F)ccc1F)C2 [Compound 3008] |  | 0 to 25
 | O=C(Cc1ccc(C(F)(F)F)cc1)Nc1c(Cl)ccc2c1CCN(S(=O)(=O)c1c(F)cccc1F)C2 [Compound 3009] |  | 0 to 25
 | Cc1cc(F)ccc1S(=O)(=O)N1CCc2c(ccc(Cl)c2NC(=O)Cc2ccc(C(F)(F)F)cc2)C1 [Compound 3010] |  | 0 to 25
 | Cc1ccc(F)cc1S(=O)(=O)N1CCc2c(ccc(Cl)c2NC(=O)Cc2ccc(C(F)(F)F)cc2)C1 [Compound 3011] |  | 0 to 25
 | O=C(Cc1ccc(C(F)(F)F)cc1)Nc1c(Cl)ccc2c1CCN(S(=O)(=O)c1cccc(Cl)c1)C2 [Compound 3012] |  | 0 to 25
 | O=C(Cc1ccc(C(F)(F)F)cc1)Nc1c(Cl)ccc2c1CCN(S(=O)(=O)c1ccc(Cl)cc1)C2 [Compound 3013] |  | 0 to 25
 | O=C(Cc1ccc(C(F)(F)F)cc1)Nc1c(Cl)ccc2c1CCN(S(=O)(=O)c1cccc(Cl)c1Cl)C2 [Compound 3014] |  | 0 to 25
 | O=C(Cc1ccc(C(F)(F)F)cc1)Nc1c(Cl)ccc2c1CCN(S(=O)(=O)c1cc(Cl)cc(Cl)c1)C2 [Compound 3015] |  | 0 to 25
 | O=C(Cc1ccc(C(F)(F)F)cc1)Nc1c(Cl)ccc2c1CCN(S(=O)(=O)c1ccc(Cl)cc1F)C2 [Compound 3016] |  | 0 to 25
 | O=C(Cc1ccc(C(F)(F)F)cc1)Nc1c(Cl)ccc2c1CCN(S(=O)(=O)c1ccc(F)cc1Cl)C2 [Compound 3017] |  | 0 to 25
 | O=C(Cc1ccc(C(F)(F)F)cc1)Nc1c(Cl)ccc2c1CCN(S(=O)(=O)c1cc(Cl)ccc1F)C2 [Compound 3018] |  | 0 to 25
 | O=C(Cc1ccc(C(F)(F)F)cc1)Nc1c(Cl)ccc2c1CCN(S(=O)(=O)c1cccc(Cl)c1F)C2 [Compound 3019] |  | 0 to 25
 | O=C(Cc1ccc(C(F)(F)F)cc1)Nc1c(Cl)ccc2c1CCN(S(=O)(=O)c1ccc(Cl)c(C(F)(F)F)c1)C2 [Compound 3020] |  | 0 to 25
 | O=C(Cc1ccc(C(F)(F)F)cc1)Nc1c(Cl)ccc2c1CCN(S(=O)(=O)c1ccc(C(F)(F)F)cc1Cl)C2 [Compound 3021] |  | 0 to 25
 | O=C(Cc1ccc(C(F)(F)F)cc1)Nc1c(Cl)ccc2c1CCN(S(=O)(=O)c1cc(C(F)(F)F)ccc1Cl)C2 [Compound 3022] |  | 0 to 25
 | Cc1ccccc1S(=O)(=O)N1CCc2c(ccc(Cl)c2NC(=O)Cc2ccc(C(F)(F)F)cc2)C1 [Compound 3023] |  | 0 to 25
 | Cc1cccc(S(=O)(=O)N2CCc3c(ccc(Cl)c3NC(=O)Cc3ccc(C(F)(F)F)cc3)C2)c1 [Compound 3024] |  | 0 to 25
84 | Cc1ccc(C)c(S(=O)(=O)N2CCc3c(ccc(Cl)c3NC(=O)Cc3ccc(C(F)(F)F)cc3)C2)c1 [Compound 3025] | ≥ 76 | 

IC50 [nM] | SMILES | inhibition at 0.3 µM [%] | inhibition at 0.1 µM [%]
 | Cc1ccc(S(=O)(=O)N2CCc3c(ccc(Cl)c3NC(=O)Cc3ccc(C(F)(F)F)cc3)C2)c(C)c1 [Compound 3026] |  | 0 to 25
 | N#Cc1ccccc1S(=O)(=O)N1CCc2c(ccc(Cl)c2NC(=O)Cc2ccc(C(F)(F)F)cc2)C1 [Compound 3027] |  | 0 to 25
 | N#Cc1cccc(S(=O)(=O)N2CCc3c(ccc(Cl)c3NC(=O)Cc3ccc(C(F)(F)F)cc3)C2)c1 [Compound 3028] |  | 0 to 25
 | N#Cc1ccc(S(=O)(=O)N2CCc3c(ccc(Cl)c3NC(=O)Cc3ccc(C(F)(F)F)cc3)C2)cc1 [Compound 3029] |  | 0 to 25
 | COc1cccc(S(=O)(=O)N2CCc3c(ccc(Cl)c3NC(=O)Cc3ccc(C(F)(F)F)cc3)C2)c1 [Compound 3030] |  | 0 to 25
 | O=C(Cc1ccc(C(F)(F)F)cc1)Nc1c(Cl)ccc2c1CCN(S(=O)(=O)c1ccccc1C(F)(F)F)C2 [Compound 3031] |  | 0 to 25
 | O=C(Cc1ccc(C(F)(F)F)cc1)Nc1c(Cl)ccc2c1CCN(S(=O)(=O)c1cccc(C(F)(F)F)c1)C2 [Compound 3032] |  | 0 to 25
 | O=C(Cc1ccc(C(F)(F)F)cc1)Nc1c(Cl)ccc2c1CCN(S(=O)(=O)c1ccc(C(F)(F)F)cc1)C2 [Compound 3033] |  | 0 to 25
 | O=C(Cc1ccc(C(F)(F)F)cc1)Nc1c(Cl)ccc2c1CCN(S(=O)(=O)c1ccccc1OC(F)(F)F)C2 [Compound 3034] |  | 0 to 25
967 | CN(C)CCC(=O)N1CCc2c(cccc2NC(=O)Cc2ccc(C(F)(F)F)c(F)c2)C1 [Compound 3035] |  | 0 to 25
> 1000 | O=C(Cc1ccc(C(F)(F)F)c(F)c1)Nc1cccc2c1CCN(C(=O)C1COc3ccccc3O1)C2 (centres unmarked) [Compound 3036] | 0 to 25 | 
145 | O=C(Cc1ccc(C(F)(F)F)c(F)c1)Nc1cccc2c1CCN(C(=O)[C@H]1COc3ccccc3O1)C2 [Compound 3037] | ≥ 76 | 
430 | O=C(Cc1ccc(C(F)(F)F)c(F)c1)Nc1cccc2c1CCN(C(=O)C1CCOCC1)C2 [Compound 3038] | 0 to 25 | 
443 | O=C(Cc1ccc(C(F)(F)F)c(F)c1)Nc1cccc2c1CCN(C(=O)C1CCOC1)C2 (centres unmarked) [Compound 3039] | 26 to 50 | 
64.2 | O=C(Cc1ccc(C(F)(F)F)c(F)c1)Nc1cccc2c1CCN(C(=O)C1COc3ccccc3C1)C2 (centres unmarked) [Compound 3040] | ≥ 76 | 
495 | O=C(Cc1ccc(C(F)(F)F)c(F)c1)Nc1cccc2c1CCN(C(=O)C1CC1)C2 [Compound 3041] | 0 to 25 | 
153 | O=C(Cc1ccc(C(F)(F)F)c(F)c1)Nc1cccc2c1CCN(C(=O)CC1CCCCC1)C2 [Compound 3042] | ≥ 76 | 
82.5 | O=C(Cc1ccc(C(F)(F)F)c(F)c1)Nc1cccc2c1CCN(C(=O)CC1CCCCCC1)C2 [Compound 3043] | ≥ 76 | 
> 1000 | Cc1ncccc1C(=O)N1CCc2c(cccc2NC(=O)Cc2ccc(C(F)(F)F)c(F)c2)C1 [Compound 3044] | 0 to 25 | 
385 | CC(C)(C)OC(=O)NC(Cc1ccccc1)C(=O)N1CCc2c(cccc2NC(=O)Cc2ccc(C(F)(F)F)c(F)c2)C1 (centres unmarked) [Compound 3045] | 26 to 50 | 
199 | CC(C)(C)OC(=O)N1CCC(OCC(=O)N2CCc3c(cccc3NC(=O)Cc3ccc(C(F)(F)F)c(F)c3)C2)CC1 [Compound 3047] | 51 to 75 | 
473 | C[C@H](NC(=O)OC(C)(C)C)C(=O)N1CCc2c(cccc2NC(=O)Cc2ccc(C(F)(F)F)c(F)c2)C1 [Compound 3048] | 0 to 25 | 
492 | CS(=O)(=O)N1CCc2c(ccc(Cl)c2NC(=O)Cc2ccc(C(F)(F)F)cc2)C1 [Compound 3050] | 26 to 50 | 
73 | O=C(Cc1ccc(C(F)(F)F)c(F)c1)Nc1cccc2c1CCN(C(=O)[C@H]1CCCN1)C2 [Compound 3051] | ≥ 76 | 
890 | O=C(Cc1ccc(C(F)(F)F)c(F)c1)Nc1cccc2c1CCN(C(=O)COC1CCNCC1)C2 [Compound 3052] | 0 to 25 | 
